Data reported in patent US20090041687A1 (priority 2005, published 2009).
Structures can show the parent of a compound that is named as a salt.

How the values were obtained:
μ-opioid receptor = molecular target: T1, μ-opioid receptor (Homo sapiens, UniProt P35372); test: μ-opioid receptor binding assay and GTP-recruitment assay (screening for antagonists); format: biochemical; settings: [3H] DAMGO binding and DAMGO/GTP-Eu recruitment, membranes from CHO cells overexpressing the receptor, result in words
T1 construct: purchased Perkin Elmer; host or cells: CHO cells (recombinant overexpression; membrane preparation)
Description: […] DAMGO (Amersham) in 50 mM Tris HCl pH 7.4 (Sigma), 10 mM MgCl2 (Sigma) and 0.2% BSA (Sigma) in the presence of the negative control DMSO (Fluka) or the test compounds. The incubation mixture was transferred to filter plates (Perkin Elmer), the liquid aspirated through the application of a vacuum from the bottom and the plate washed twice with PBS (Invitrogen). The plate was allowed to dry, 35 μl of scintillation cocktail (Ultima Gold, Perkin Elmer) added, sealed and placed on a TopCount (Packard) for scintillation counting.
[…] The incubation mixture was transferred to filter plates (Perkin Elmer), the liquid aspirated through the application of a vacuum from the bottom and the plate washed twice with PBS (Invitrogen) and allowed to dry. Plates were read in an Analyst reader (LJL Biosystems).

[1] = system: human primary melanocytes from skin type IV; test: total intracellular melanin production in human primary melanocytes (depigmentation); format: cell-based; settings: for Reduction of mean melanin content: versus control
Description: Normal human melanocytes were cultured from freshly excised foreskin of skin type IV and treated with Dispase (ready-to-use, Roche) overnight at 4° C. Melanocytes dissociated from the epidermis were plated in culture flasks at high density using Melanocyte Growth Medium M2 (Promocell) supplemented with the corresponding growth factors (Promocell). These primary cells were cultivated under 100% humidity and 5% CO2 at 37° C. At the second passage, melanocytes were transferred to 6 well plates and allowed to reach 80% surface confluence.
Medium was renewed on day two of the experiment. Cells were harvested, counted and lysed in 1N NaOH using vigorous vortexing and a 30 minute incubation in an ultrasound bath. Melanin content was determined by measuring the absorption of cell lysates at 475 nm. Values were calibrated against a standard curve based on synthetic melanin (Sigma). The amount of melanin per 1 million cells is reported. Each treatment was run in duplicate.

T1 sequence (P35372 whole entry): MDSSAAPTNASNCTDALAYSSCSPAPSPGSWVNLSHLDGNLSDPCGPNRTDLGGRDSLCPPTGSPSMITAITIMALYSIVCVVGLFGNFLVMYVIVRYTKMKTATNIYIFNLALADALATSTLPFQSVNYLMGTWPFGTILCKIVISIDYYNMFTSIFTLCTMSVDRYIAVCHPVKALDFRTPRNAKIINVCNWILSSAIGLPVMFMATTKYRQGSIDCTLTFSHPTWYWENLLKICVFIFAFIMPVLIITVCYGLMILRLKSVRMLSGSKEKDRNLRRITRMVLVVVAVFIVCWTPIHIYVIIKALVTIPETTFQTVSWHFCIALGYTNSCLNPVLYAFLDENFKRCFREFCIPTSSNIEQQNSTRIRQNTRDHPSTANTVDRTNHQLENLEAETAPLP

Compound | identified as opioid receptor antagonist in the screening (μ-opioid receptor) | further results
O=c1c(O)c(-c2ccc(O)c(O)c2)oc2cc(O)c(O)c(O)c12 [Quercetagetin] | opioid receptor antagonists | –
O=c1c(-c2cc(O)c(O)c(O)c2)coc2cc(O)c(O)c(O)c12 [Irigenol ex Iris spp] | opioid receptor antagonists | –
O=c1c(O)c(-c2cc(O)c(O)c(O)c2)oc2cc(O)ccc12 [Robinetin] | opioid receptor antagonists | –
COC1=C(OC)C(=O)C=CC1=O [2,3-Dimethoxy-1,4-benzoquinone] | opioid receptor antagonists | –
COc1c(O)ccc(O)c1OC [2,3-Dimethoxyhydroquinone] | opioid receptor antagonists | –
COc1cc2c3cc1Oc1c(OC)c(OC)cc4c1[C@@H](Cc1cccc(c1)Oc1ccc(c(O)c1)C[C@@H]3N(C)CC2)N(C)CC4 [Berbamine Hydrochloride] | – | identified as opioid receptor antagonist in the screening (μ-opioid receptor; Hydrochloride): opioid receptor antagonists
O=C1/C(=C/c2ccc(O)c(O)c2)Oc2cc(O)cc(O)c21 [Aureusidin] | opioid receptor antagonists | –
CC(C)=CCC(OC(=O)C=C(C)C)C1=CC(=O)c2c(O)ccc(O)c2C1=O (stereo not drawn) [beta,beta-Dimethylacryl shikonin] | opioid receptor antagonists | –
COc1c(O)cc(C)c(O)c1OC [2,3-Dimethoxy-5-methylhydroquinone] | opioid receptor antagonists | –
CC(=O)Oc1cc(-c2coc3cc(OC(C)=O)c(OC(C)=O)c(OC(C)=O)c3c2=O)cc(OC(C)=O)c1OC(C)=O [Irigenol Hexaacetate] | opioid receptor antagonists | –
O=C(Oc1cc(O)cc2c1C[C@@H](OC(=O)c1cc(O)c(O)c(O)c1)[C@@H](c1cc(O)c(O)c(O)c1)O2)c1cc(O)c(O)c(O)c1 [Epigallocatechin 3,5-Digallate] | opioid receptor antagonists | –
O=C(/C=C/c1ccc(O)c(O)c1)c1ccc(O)c(O)c1O [2′,3′,4′,3,4-Pentahydroxychalcone] | opioid receptor antagonists | –
Oc1cc(O)c2cc(O)c(-c3cc(O)c(O)c(O)c3)[o+]c2c1 [Delphinidin chloride] | opioid receptor antagonists | –
C=CCN1CC[C@]23c4c5ccc(O)c4O[C@H]2C(=O)CC[C@@]3(O)[C@H]1C5 [Naloxone] | – | Melanin (μg/10^6 cells) ([1]; Naloxone 1 × 10^−4 M, 4 days, absorption of cell lysates at 475 nm, duplicate): 1.05 μg/10^6 cells; Reduction of mean melanin content ([1]; Naloxone 1 × 10^−4 M, 4 days): 86%; Reduction of mean melanin content ([1]; Naloxone 5 × 10^−6 M, 4 days): 78%; intracellular melanin content compared to the control ([1]; result in words): dramatically reduces intracellular melanin content
COC1=C(OC)C(=O)C(C)=CC1=O [2,3-Dimethoxy-5-methyl-1,4-benzoquinone] | opioid receptor antagonists | –
C/C1=C\CCC(C)(O)/C=C/C(C(C)C)CC/C(C)=C/CC1 (stereo not shown) [Isocembrol] | opioid receptor antagonists | –
